From ChEMBL document CHEMBL1201861, “Genomics of Drug Sensitity in Cancer screening data, Wellcome Trust Sanger Institute”

Columns and labels:
Assay in all cases: cells
U-251 = format: functional, cell-based, Homo sapiens; conditions: Homo sapiens, U-251;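 also: growth inhibition of human U-251 cells, read out through a cell viability assay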
Description: SANGER: Inhibition of human U251 cell growth in a cell viability assay.

MS-1 = format: functional, cell-based; conditions: Homo sapiens;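 also: growth inhibition of MS-1 cells, read out by cell viability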
Description: SANGER: Inhibition of human MS-1 cell growth in a cell viability assay.

BT-20 = format: functional, cell-based, Homo sapiens; conditions: Homo sapiens, BT-20;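 also: cell viability assay measuring suppression of growth in human BT-20 cells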
Description: SANGER: Inhibition of human BT-20 cell growth in a cell viability assay.

A253 cell line = format: functional, cell-based, Homo sapiens; conditions: Homo sapiens, A253;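 also: growth inhibition of A253 cells, read out with a cell viability assay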
Description: SANGER: Inhibition of human A253 cell growth in a cell viability assay.

SW684 = format: functional, cell-based, Homo sapiens; conditions: Homo sapiens, SW684;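 also: growth inhibition of human SW684 cells, measured by a cell viability assay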
Description: SANGER: Inhibition of human SW684 cell growth in a cell viability assay.

MZ2-MEL = format: functional, cell-based, Homo sapiens; conditions: Homo sapiens, MZ2-MEL;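 also: growth inhibition of MZ2-MEL cells read out with a cell viability assay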
Description: SANGER: Inhibition of human MZ2-MEL cell growth in a cell viability assay.

NUGC-3 = format: functional, cell-based, Homo sapiens; conditions: Homo sapiens, NUGC-3;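 also: growth inhibition of human NUGC-3 cells, read out with a cell viability assay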
Description: SANGER: Inhibition of human NUGC-3 cell growth in a cell viability assay.

HT = format: functional, cell-based; conditions: Homo sapiens
Description: SANGER: Inhibition of human HT cell growth in a cell viability assay.

Calu-6 = format: functional, cell-based, Homo sapiens; conditions: Homo sapiens, Calu-6;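 also: growth of human Calu-6 cells, read out by a cell viability assay, IC50 marking inhibition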
Description: SANGER: Inhibition of human Calu-6 cell growth in a cell viability assay.

LCLC-97TM1 = format: functional, cell-based, Homo sapiens; conditions: Homo sapiens, LCLC-97TM1;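 also: cell viability assay measuring growth inhibition of human LCLC-97TM1 cells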
Description: SANGER: Inhibition of human LCLC-97TM1 cell growth in a cell viability assay.

NCI-H1838 = format: functional, cell-based, Homo sapiens; conditions: Homo sapiens, NCI-H1838;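 also: growth inhibition of NCI-H1838 cells, determined with a cell viability readout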
Description: SANGER: Inhibition of human NCI-H1838 cell growth in a cell viability assay.

NCI-H2170 = format: functional, cell-based, Homo sapiens; conditions: Homo sapiens, NCI-H2170;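 also: cell viability assay measuring growth inhibition of human NCI-H2170 cancer cells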
Description: SANGER: Inhibition of human NCI-H2170 cell growth in a cell viability assay.

J-RT3-T3-5 = format: functional, cell-based; conditions: Homo sapiens;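 also: cell viability assay measuring growth inhibition of human J-RT3-T3-5 cells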
Description: SANGER: Inhibition of human J-RT3-T3-5 cell growth in a cell viability assay.

HT-144 = format: functional, cell-based, Homo sapiens; conditions: Homo sapiens, HT-144
Description: SANGER: Inhibition of human HT-144 cell growth in a cell viability assay.

MFE-280 = format: functional, cell-based, Homo sapiens; conditions: Homo sapiens, MFE-280;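 also: growth inhibition of MFE-280 cells, determined with a cell viability readout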
Description: SANGER: Inhibition of human MFE-280 cell growth in a cell viability assay.

RPMI-8866 = format: functional, cell-based; conditions: Homo sapiens
Description: SANGER: Inhibition of human RPMI-8866 cell growth in a cell viability assay.

VMRC-RCZ = format: functional, cell-based; conditions: Homo sapiens;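 also: growth inhibition measured with a cell viability assay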
Description: SANGER: Inhibition of human VMRC-RCZ cell growth in a cell viability assay.

JEG-3 = format: functional, cell-based, Homo sapiens; conditions: Homo sapiens, JEG-3;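 also: growth inhibition of human JEG-3 cells, read out with a cell viability assay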
Description: SANGER: Inhibition of human JEG-3 cell growth in a cell viability assay.

YAPC = format: functional, cell-based, Homo sapiens; conditions: Homo sapiens, YAPC;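 also: growth inhibition of YAPC cells, measured with a cell viability assay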
Description: SANGER: Inhibition of human YAPC cell growth in a cell viability assay.

769-P = format: functional, cell-based, Homo sapiens; conditions: Homo sapiens, 769-P
Description: SANGER: Inhibition of human 769-P cell growth in a cell viability assay.

TE-6 = format: functional, cell-based, Homo sapiens; conditions: Homo sapiens, TE-6;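 also: growth inhibition of TE-6 cells, read out with a cell viability assay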
Description: SANGER: Inhibition of human TE-6 cell growth in a cell viability assay.

MPP-89 = format: functional, cell-based, Homo sapiens; conditions: Homo sapiens, MPP-89;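 also: growth inhibition of human MPP-89 cells, read out with a cell viability assay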
Description: SANGER: Inhibition of human MPP-89 cell growth in a cell viability assay.

MHH-NB-11 = format: functional, cell-based, Homo sapiens; conditions: Homo sapiens, MHH-NB-11;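 also: growth inhibition of human MHH-NB-11 cells, read out by a cell viability assay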
Description: SANGER: Inhibition of human MHH-NB-11 cell growth in a cell viability assay.

SK-UT-1 = format: functional, cell-based, Homo sapiens; conditions: Homo sapiens, SK-UT-1;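 also: growth inhibition of SK-UT-1 cells, measured by a cell viability assay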
Description: SANGER: Inhibition of human SK-UT-1 cell growth in a cell viability assay.

SW1088 = format: functional, cell-based, Homo sapiens; conditions: Homo sapiens, SW1088;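 also: growth inhibition of human SW1088 cells, read out by a cell viability assay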
Description: SANGER: Inhibition of human SW1088 cell growth in a cell viability assay.

TGBC1TKB = format: functional, cell-based, Homo sapiens; conditions: Homo sapiens, TGBC1TKB;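 also: growth inhibition of TGBC1TKB cells, read out by a cell viability assay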
Description: SANGER: Inhibition of human TGBC1TKB cell growth in a cell viability assay.

TCC-SUP = format: functional, cell-based, Homo sapiens; conditions: Homo sapiens, TCC-SUP;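 also: growth inhibition of TCC-SUP cells, read out with a cell viability assay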
Description: SANGER: Inhibition of human TCCSUP cell growth in a cell viability assay.

MSTO-211H = format: functional, cell-based, Homo sapiens; conditions: Homo sapiens, MSTO-211H
Description: SANGER: Inhibition of human MSTO-211H cell growth in a cell viability assay.

CAL-54 = format: functional, cell-based, Homo sapiens; conditions: Homo sapiens, CAL-54;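 also: growth inhibition of CAL-54 cells, read out by a viability measurement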
Description: SANGER: Inhibition of human CAL-54 cell growth in a cell viability assay.

NKM-1 = format: functional, cell-based; conditions: Homo sapiens;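 also: growth inhibition of NKM-1 cells, read out with a cell viability assay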
TE-5 = format: functional, cell-based, Homo sapiens; conditions: Homo sapiens, TE-5;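 also: inhibition of cell growth, read out by a cell viability assay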
Description: SANGER: Inhibition of human TE-5 cell growth in a cell viability assay.

NOMO-1 = format: functional, cell-based; conditions: Homo sapiens;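 also: growth inhibition of human NOMO-1 cells measured by a cell viability assay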
SCC-15 = format: functional, cell-based, Homo sapiens; conditions: Homo sapiens, SCC-15;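 also: growth inhibition of SCC-15 cells, read out with a cell viability assay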
Description: SANGER: Inhibition of human SCC-15 cell growth in a cell viability assay.

NCI-H1355 = format: functional, cell-based, Homo sapiens; conditions: Homo sapiens, NCI-H1355;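 also: growth inhibition of human NCI-H1355 cells, read out by a cell viability assay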
Description: SANGER: Inhibition of human NCI-H1355 cell growth in a cell viability assay.

HPAF-II = format: functional, cell-based, Homo sapiens; conditions: Homo sapiens, HPAF-II;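 also: growth inhibition of HPAF-II cells, read out with a cell viability assay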
Description: SANGER: Inhibition of human HPAF-II cell growth in a cell viability assay.

SAOS-2 = format: functional, cell-based, Homo sapiens; conditions: Homo sapiens, SAOS-2;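 also: growth inhibition of human Saos-2 cells determined by a cell viability assay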
Description: SANGER: Inhibition of human Saos-2 cell growth in a cell viability assay.

LXF-289 cell line = format: functional, cell-based, Homo sapiens; conditions: Homo sapiens, LXF-289
Description: SANGER: Inhibition of human LXF-289 cell growth in a cell viability assay.

ME-180 = format: functional, cell-based; conditions: Homo sapiens;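 also: cell viability assay measuring growth inhibition of ME-180 cells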
Description: SANGER: Inhibition of human ME-180 cell growth in a cell viability assay.

MOLT-16 = format: functional, cell-based; conditions: Homo sapiens;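 also: growth inhibition of human MOLT-16 cells, read out with a cell viability assay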
Description: SANGER: Inhibition of human MOLT-16 cell growth in a cell viability assay.

SF-539 = format: functional, cell-based, Homo sapiens; conditions: Homo sapiens, SF-539;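 also: Read-out is a cell viability assay, with IC50 reflecting inhibition of cell growth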
Description: SANGER: Inhibition of human SF539 cell growth in a cell viability assay.

NCI-H650 = format: functional, cell-based, Homo sapiens; conditions: Homo sapiens, NCI-H650;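 also: growth inhibition of NCI-H650 cells, read out by a viability assay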
Description: SANGER: Inhibition of human NCI-H650 cell growth in a cell viability assay.

OVCAR-5 = format: functional, cell-based, Homo sapiens; conditions: Homo sapiens, OVCAR-5;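 also: growth inhibition of human OVCAR-5 cells, read out with a cell viability assay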
Description: SANGER: Inhibition of human OVCAR-5 cell growth in a cell viability assay.

BXPC-3 = format: functional, cell-based, Homo sapiens; conditions: Homo sapiens, BXPC-3;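 also: growth inhibition of human BxPC-3 cells, read out by a cell viability assay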
Description: SANGER: Inhibition of human BxPC-3 cell growth in a cell viability assay.

BPH-1 = format: functional, cell-based, Homo sapiens; conditions: Homo sapiens, BPH-1;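 also: cell viability assay measuring growth inhibition of human BPH-1 cells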
Description: SANGER: Inhibition of human BPH-1 cell growth in a cell viability assay.

CAPAN-1 = format: functional, cell-based, Homo sapiens; conditions: Homo sapiens, CAPAN-1;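 also: growth suppression of CAPAN-1 cells, read out by a cell viability assay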
Description: SANGER: Inhibition of human CAPAN-1 cell growth in a cell viability assay.

FTC-133 = format: functional, cell-based, Homo sapiens; conditions: Homo sapiens, FTC-133
HSC-2 = format: functional, cell-based, Homo sapiens; conditions: Homo sapiens, HSC-2;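 also: growth inhibition of human HSC-2 cells, read out by a cell viability assay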
Description: SANGER: Inhibition of human HSC-2 cell growth in a cell viability assay.

NCI-H1092 = format: functional, cell-based; conditions: Homo sapiens;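 also: cell growth inhibition measured with a cell viability assay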
Description: SANGER: Inhibition of human NCI-H1092 cell growth in a cell viability assay.

SCH = format: functional, cell-based, Homo sapiens; conditions: Homo sapiens, SCH;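 also: growth inhibition of human SCH cells, read out in a cell viability assay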
Description: SANGER: Inhibition of human SCH cell growth in a cell viability assay.

KYSE-180 = format: functional, cell-based, Homo sapiens; conditions: Homo sapiens, KYSE-180;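 also: growth inhibition of KYSE-180 cells, read out with a cell viability assay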
Description: SANGER: Inhibition of human KYSE-180 cell growth in a cell viability assay.

CP50-MEL-B = format: functional, cell-based, Homo sapiens; conditions: Homo sapiens, CP50-MEL-B;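 also: growth inhibition of the human cell line, measured with a cell viability read-out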
Description: SANGER: Inhibition of human CP50-MEL-B cell growth in a cell viability assay.

Measured: IC50

C=CCc1cccc(/C=N/NC(=O)CN2CCN(Cc3ccccc3)CC2)c1O [PAC-1]
> 2560 nM: U-251 | MS-1 | BT-20 | A253 cell line | SW684 | MZ2-MEL | NUGC-3 | HT | Calu-6 | NCI-H1838 | NCI-H2170 | MFE-280 | RPMI-8866 | VMRC-RCZ | JEG-3 | YAPC | 769-P | TE-6 | MPP-89 | MHH-NB-11 | SK-UT-1 | SW1088 | TGBC1TKB | TCC-SUP | MSTO-211H | CAL-54 | NKM-1 | TE-5 | NOMO-1 | SCC-15 | NCI-H1355 | HPAF-II | SAOS-2 | LXF-289 cell line | ME-180 | MOLT-16 | SF-539 | NCI-H650 | OVCAR-5 | BPH-1 | CAPAN-1 | FTC-133 | HSC-2 | NCI-H1092 | SCH | KYSE-180 | CP50-MEL-B
2090 nM: BXPC-3
2500 nM: HT-144
1420 nM: LCLC-97TM1
1200 nM: J-RT3-T3-5

Cc1ccc(Nc2nccc(N(C)c3ccc4c(C)n(C)nc4c3)n2)cc1S(N)(=O)=O [PAZOPANIB]
3280 nM: CAL-54
6930 nM: MZ2-MEL
> 8000 nM: U-251 | MS-1 | BT-20 | A253 cell line | SW684 | NUGC-3 | HT | Calu-6 | LCLC-97TM1 | NCI-H1838 | NCI-H2170 | J-RT3-T3-5 | HT-144 | MFE-280 | RPMI-8866 | VMRC-RCZ | JEG-3 | YAPC | 769-P | TE-6 | MPP-89 | MHH-NB-11 | SK-UT-1 | SW1088 | TGBC1TKB | TCC-SUP | MSTO-211H | NKM-1 | TE-5 | NOMO-1 | SCC-15 | NCI-H1355 | HPAF-II | SAOS-2 | LXF-289 cell line | ME-180 | MOLT-16 | SF-539 | NCI-H650 | OVCAR-5 | BXPC-3 | BPH-1 | CAPAN-1 | FTC-133 | HSC-2 | NCI-H1092 | SCH | KYSE-180 | CP50-MEL-B
